This is an account of results in ChEMBL document CHEMBL1132088, “Three-dimensional structure-function relationship of vitamin D: side chain location and various activities” (1999).

Test [1] is described as follows: Gene transcriptional activity against osteopontin (OPN). In kind it is functional.
Test [2] has as its target T1, Vitamin D3 receptor (Sus scrofa) (UniProt A3RGC1).
T1 sequence (whole entry): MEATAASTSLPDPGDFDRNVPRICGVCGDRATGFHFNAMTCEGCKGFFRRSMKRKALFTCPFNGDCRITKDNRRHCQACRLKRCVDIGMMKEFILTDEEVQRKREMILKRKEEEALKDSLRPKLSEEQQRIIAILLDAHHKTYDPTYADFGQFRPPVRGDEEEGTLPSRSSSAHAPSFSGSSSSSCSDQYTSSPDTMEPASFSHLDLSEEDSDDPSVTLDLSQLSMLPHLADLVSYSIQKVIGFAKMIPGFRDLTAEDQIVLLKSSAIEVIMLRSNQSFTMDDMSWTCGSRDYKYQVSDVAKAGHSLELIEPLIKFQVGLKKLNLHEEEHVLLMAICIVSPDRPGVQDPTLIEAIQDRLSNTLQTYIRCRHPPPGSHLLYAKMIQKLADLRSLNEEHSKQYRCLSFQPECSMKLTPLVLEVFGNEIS
Description: (§1) Affinity for porcine Vitamin D3 receptor. On the set-up: reference not given here.

For test [3], the target named is T2, Vitamin D3 receptor (Bos taurus) (UniProt Q28037).
T2 sequence (whole entry): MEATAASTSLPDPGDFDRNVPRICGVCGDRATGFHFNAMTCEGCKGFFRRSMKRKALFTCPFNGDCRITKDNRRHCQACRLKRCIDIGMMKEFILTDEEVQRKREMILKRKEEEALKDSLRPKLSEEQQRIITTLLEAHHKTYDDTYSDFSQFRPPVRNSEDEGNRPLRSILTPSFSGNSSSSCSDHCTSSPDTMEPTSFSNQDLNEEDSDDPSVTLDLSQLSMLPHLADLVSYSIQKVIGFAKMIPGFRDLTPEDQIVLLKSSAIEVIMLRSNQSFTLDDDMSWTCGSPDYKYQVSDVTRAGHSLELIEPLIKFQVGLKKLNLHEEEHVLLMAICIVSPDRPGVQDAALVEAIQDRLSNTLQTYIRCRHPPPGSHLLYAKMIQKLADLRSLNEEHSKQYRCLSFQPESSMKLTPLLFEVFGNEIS
Description: Affinity for bovine Vitamin D3 receptor. More on the design: reference not given here.

The target in test [4] is T3, Vitamin D-binding protein (Rattus norvegicus) (UniProt P04276).
T3 sequence (whole entry): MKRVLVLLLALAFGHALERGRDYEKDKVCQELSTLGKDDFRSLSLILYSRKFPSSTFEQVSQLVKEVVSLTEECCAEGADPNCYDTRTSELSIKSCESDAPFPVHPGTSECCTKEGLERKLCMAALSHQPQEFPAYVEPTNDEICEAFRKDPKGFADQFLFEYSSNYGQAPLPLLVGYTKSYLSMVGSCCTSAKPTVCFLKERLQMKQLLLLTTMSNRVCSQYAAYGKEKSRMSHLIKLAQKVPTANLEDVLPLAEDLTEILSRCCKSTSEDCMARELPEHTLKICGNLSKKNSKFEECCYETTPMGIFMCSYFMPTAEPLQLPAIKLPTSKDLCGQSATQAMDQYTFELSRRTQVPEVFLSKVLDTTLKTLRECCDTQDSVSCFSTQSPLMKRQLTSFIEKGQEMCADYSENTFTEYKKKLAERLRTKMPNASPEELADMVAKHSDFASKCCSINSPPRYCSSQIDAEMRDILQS
Description: Binding affinity for rat Vitamin D binding protein. More on the design: reference not given here.

Test [5] has as its system Rattus norvegicus. The experiment in a line: In vivo calcemic activity expressed as relative activity for Bone calcium mobilization (BCM) in vitamin D deficient rats.
Test [6] has as its system Rattus norvegicus. The experiment in a line: In vivo calcemic activity expressed as relative activity for Intestinal calcium transport (ICA) in vitamin D deficient rats.
The test system of a further test is HL-60. Description: In vitro activity expressed as relative activity to induce the differentiation of human promyelocytic leukemia (HL-60) cells by NBT reduction assay.
In test [7] the test system is MCF7. The experiment in a line: In vitro activity expressed as relative activity to inhibit the proliferation of human breast cancer cells (MCF-7) by measuring [3H]thymidine incorporation. For orientation: Incorporation of labelled thymidine or its analogues reports DNA synthesis.
The subject of test [8] is Keratinocyte cell line. The experiment in a line: In vitro activity expressed as relative activity to inhibit the proliferation of primary cultures of human foreskin keratinocytes by measuring [3H]thymidine incorporation.
Test [9] concerns MCF7. The experiment in a line: In vitro activity expressed as relative activity to inhibit the proliferation of human breast cancer cells (MCF-7) by measuring [3H]thymidine incorporation. This is another data set of the same source.
Test [10] has as its system Keratinocyte cell line. Description: In vitro activity expressed as relative activity to inhibit the proliferation of primary cultures of human foreskin keratinocytes by measuring [3H]thymidine incorporation. The source holds these as a separate data set.
The target in test [11] is T1, Vitamin D3 receptor (Sus scrofa). The description is as §1.

For `C=C1/C(=C\C=C2/CCC[C@]3(C)[C@@H]([C@@H](C)[C@H](C)CCC(C)(C)O)CC[C@@H]23)C[C@@H](O)C[C@@H]1O`, the relative activity was 10000% in test [1]; 220% with Rattus norvegicus [5]; 51% in the test with Rattus norvegicus [6]; 12000% with HL-60; 15000% with MCF7 [7]; 9000% in the test with Keratinocyte cell line [8]. Besides, the Activity is 2000 in [2], 1100 in test [3] and less than 0.25 in [4].
For `C=C1/C(=C\C=C2/CCC[C@]3(C)[C@@H]([C@@H](C)[C@@H](C)CCC(C)(C)O)CC[C@@H]23)C[C@@H](O)C[C@@H]1O`, the relative activity is 3% in test [1]; 5% in the test with Rattus norvegicus [5]; less than 1% in the test on Rattus norvegicus [6]; 8% in the test on HL-60; 70% in the test with MCF7 [9]; 60% in the test with Keratinocyte cell line [8]. Besides, the Activity in [2] is 1; in test [3], 0.4; in test [4], less than 0.25.
`C=C1/C(=C\C=C2/CCC[C@]3(C)[C@@H]([C@H](C)CCCC(C)(C)O)CC[C@@H]23)C[C@@H](O)C[C@@H]1O` [CALCITRIOL]: the relative activity (in [1]; in the test with Rattus norvegicus [5]; in the test with Rattus norvegicus [6]; in the test on HL-60; in the test on MCF7 [9]; with Keratinocyte cell line [10]) was 100% in each case. The Activity in test [2], in test [3] and in test [4] was 100 each time.
Turning to `C=C1/C(=C\C=C2/CCC[C@]3(C)[C@@H]([C@@H](C)CCCC(C)(C)O)CC[C@@H]23)C[C@@H](O)C[C@@H]1O`, the Activity in [11] turned out to be 500; in test [4] it was 4000.
Turning to `C=C1/C(=C\C=C2/CCC[C@]3(C)[C@@H]([C@H](C)[C@H](C)CCC(C)(C)O)CC[C@@H]23)C[C@@H](O)C[C@@H]1O`, the relative activity in test [1] was 1%; in the test with Rattus norvegicus [5], 32%; in the test with Rattus norvegicus [6], 25%; in the test with HL-60, 1.3%. Moreover, the Activity in test [2] came to 1.7; in test [3], 2; in [4], 0.45.
`C=C1/C(=C\C=C2/CCC[C@]3(C)[C@@H]([C@H](C)[C@@H](C)CCC(C)(C)O)CC[C@@H]23)C[C@@H](O)C[C@@H]1O`: the relative activity was 22% in test [1], 26% in the test on Rattus norvegicus [5], 50% in the test with Rattus norvegicus [6] and 100% in the test with HL-60. The Activity came to 33 in test [2], 33 in test [3] and 67 in test [4].
